Measured values from US9271978B2 (Zenith Epigenetics Corp., priority 2012, dated 2016).

Key:
[1] = tested on: hIL-6 mRNA; test: Inhibition of hIL-6 mRNA transcription in U937 cells; format: cell-based, human; parameters: key: Active: Compounds with an IC50 value less than 30 μM were deemed to be active.; Not Active: Compounds with an IC50 value less than 30 μM were deemed to be active; settings: LPS stimulation, active = IC50 <30 μM
In short: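 Readout is one-step real-time PCR of hIL-6 mRNA, normalized to an internal control and given as fold induction versus control. Cells: PMA (60 ng/mL, 3 days)-differentiated U937 macrophages, compound added 1 h before 1 ug/mL LPS, harvested after 3 h at 37° C.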

[2] = tested on: c-myc; test: Inhibition of c-myc expression in MV4-11 cells (mRNA, real-time PCR); format: cell-based; parameters: key: Active: Compounds with an IC50 value less than 30 μM were deemed to be active.; Not Active: Compounds with an IC50 value less than 30 μM were deemed to be active; settings: Human AML MV4-11 cells, 3 h incubation
In short: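 Duplex RT-qPCR of c-myc against cyclophilin cDNA gave IC50 from a dose–response curve. Input was isolated mRNA from 2.5×10^4 MV4-11 cells after 3 h exposure at 37 °C to compound or 0.1% DMSO vehicle.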

[3] = tested on: human AML MV-4-11 (CRL-9591) cells; test: Inhibition of cell proliferation in MV4-11 cells; format: cell-based; parameters: key: Active: Compounds with an IC50 value less than 30 μM were deemed to be active.; Not Active: Compounds with an IC50 value less than 30 μM were deemed to be active; settings: human AML MV-4-11 cells, 72 h; active = IC50 <30 μM
In short: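 IC50 values come from blank-corrected proliferation relative to DMSO controls, read as 490 nm absorbance 3–4 h after CellTiter Aqueous One addition. Before that, cells seeded at 5×10^4/well were exposed for 72 h (37° C, 5% CO2) to triplicate two-fold compound dilutions spanning 30–0.2 μM.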

[4] = tested on: ApoA-I mRNA; test: Up-regulation of hApoA-1 mRNA transcription in Huh7 cells; format: cell-based, human; parameters: key: Active: Compounds with an EC170 value less than 30 μM were deemed to be active; settings: 48 h treatment, ApoA-I mRNA by real-time PCR, Active = EC170 less than 30 μM
In short: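 Huh7 cells treated with compound for 48 h. ApoA-I mRNA was then quantified in captured mRNA by one-step real-time RT-PCR. Fold induction calculated from Ct values relative to the matching DMSO control; EC170 is the concentration for 170% of control expression.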

[5] = target: T1, second bromodomain of Brd2 (BRD2(2)) (Homo sapiens, UniProt P25440); test: Inhibition of tetra-acetylated histone H4 binding to Brd2 bromodomain 2 (TR-FRET); parameters: key: Active: Compounds with an IC50 value less than 30 μM were deemed to be active.; Not Active: Compounds with an IC50 value less than 30 μM were deemed to be active; settings: tetra-acetylated histone H4 peptide, active = IC50 <30 μM
T1 construct: made in house; host or cells: E. coli BL21 (DE3)
In short: (§1)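 IC50 values come from dose-response curves of the 665 nm to 620 nm TR-FRET signal decrease, measured after 2 h at room temperature. Reactions contained 200 nM E. coli-expressed His-tagged bromodomain, 25-50 nM biotinylated tetra-acetylated H4 peptide, Eu-streptavidin plus XL665 anti-His antibody, with 30 mM HEPES pH 7.4, 320 mM KF and 0.2% DMSO.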

[6] = target: T2, Brd4 bromodomain 1 (BRD4(1)) (Homo sapiens, UniProt O60885); test: Inhibition of tetra-acetylated histone H4 binding to Brd4 bromodomain 1 (TR-FRET); parameters: key: Active: Compounds with an IC50 value less than 30 μM were deemed to be active.; Not Active: Compounds with an IC50 value less than 30 μM were deemed to be active; settings: tetra-acetylated histone H4 peptide, active = IC50 <30 μM
T2 construct: Illustrative results with the first bromodomain of Brd4; made in house; host or cells: E. coli BL21 (DE3)
In short: as §1

T1 sequence (P25440 344-453 limits assumed): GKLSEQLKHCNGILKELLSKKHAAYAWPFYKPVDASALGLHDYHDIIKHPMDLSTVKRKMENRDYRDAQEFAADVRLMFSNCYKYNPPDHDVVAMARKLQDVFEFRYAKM

| SMILES | IL-6 activity (IC50 <30 μM) [1] | c-myc activity (IC50 <30 μM) [2] | Cell Proliferation activity (IC50 <30 μM) [3] | ApoA-1 activity (EC170 <30 μM) [4] | FRET activity (IC50 <30 μM) BRD2(2) [5] | FRET activity (IC50 <30 μM) BRD4(1) [6] |
| --- | --- | --- | --- | --- | --- | --- |
| Cc1noc(C)c1-c1ccc(=O)n(Cc2ccc3[nH]cnc3c2)c1 [Example 146, 1-((1H-benzo[d]imidazol-5-yl)methyl)-5-(3,5-dimethylisoxazol-4-yl)pyridin-2(1H)-one] | Active | Active | Not Active | Active | Active | Active |
| Cc1noc(C)c1-c1ccc(=O)n(Cc2ccc(Cl)cn2)c1 [Example 55, 1-((5-Chloropyridin-2-yl)methyl)-5-(3,5-dimethylisoxazol-4-yl)pyridin-2(1H)-one] | Active | Active | Active | Active | Active | Active |
| Cc1noc(C)c1-c1ccc(=O)n(Cc2ccc(F)cc2)c1 [Example 132, 5-(3,5-Dimethylisoxazol-4-yl)-1-(4-fluorobenzyl)pyridin-2(1H)-one] | Active | Active | Active | Active | Active | Active |
| Cc1noc(C)c1-c1ccc(=O)n(CCOc2ccccc2)c1 [Example 51, 5-(3,5-Dimethylisoxazol-4-yl)-1-(2-phenoxyethyl)pyridin-2(1H)-one] | Active | Not Active | Not Active | Active | Active | Active |
| CNc1cc(-c2c(C)noc2C)cn(Cc2ccccc2)c1=O [Example 75, 1-Benzyl-5-(3,5-dimethylisoxazol-4-yl)-3-(methylamino)pyridin-2(1H)-one] | Active | Active | Active | Active | Active | Active |
| Cc1noc(C)c1-c1ccc(=O)n(Cc2cccc3cccnc23)c1 [Example 47, 5-(3,5-Dimethylisoxazol-4-yl)-1-(quinolin-8-ylmethyl)pyridin-2(1H)-one] | Active | Active | Active | Active | Active | Active |
| Cc1noc(C)c1-c1ccc(=O)n(C(C)c2cccc(F)c2)c1 (stereo not drawn) [Example 104, 5-(3,5-Dimethylisoxazol-4-yl)-1-(1-(3-fluorophenyl)ethyl)pyridin-2(1H)-one] | Active | Active | Active | Active | Active | Active |
| Cc1noc(C)c1-c1cc(C)c(=O)n(Cc2ccccc2)c1 [Example 66, 1-Benzyl-5-(3,5-dimethylisoxazol-4-yl)-3-methylpyridin-2(1H)-one] | Active | Active | Active | Active | Active | Active |
| COc1cc(-c2ccc(=O)n(Cc3ccccc3)c2)cc(OC)c1OC [Example 52, 1-Benzyl-5-(3,4,5-trimethoxyphenyl)pyridin-2(1H)-one] | Active | Not Active | Not Active | Active | Active | Active |
